Test results as given in PMC6001238, “Iterative Chemical Engineering of Vancomycin Leads to Novel Vancomycin Analogs With a High in Vitro Therapeutic Index” (Frontiers in Microbiology, 2018).
In brackets after ≈: the same amount, converted by molar mass.

Columns and labels:
MRSA KS1 = test: MIC, broth microdilution, MRSA KS1; format: cell-based, Staphylococcus aureus; settings: for MIC-fold improvement vs. vancomycin: MRSA KS1, ratio of MIC of vancomycin and MIC of analogue; for MIC: Staphylococcus aureus MRSA KS1, read-out: MIC
Procedure: (§1) The minimum inhibitory concentration (MIC) was determined using the broth microdilution method according to the antimicrobial susceptibility testing standards of the clinical and laboratory standards institute ([Clinical and Laboratory Standards Institute [CLSI], 2012]). Ultrapure water and non-inoculated broth were used as controls. In one case, a final concentration of 10 μM vancomycin was included with the vancomycin analog or control antibiotic.

S. aureus VRSA = test: MIC, broth microdilution, vancomycin-resistant S. aureus (VRSA); format: cell-based, Staphylococcus aureus; settings: for MIC: Staphylococcus aureus VRSA, read-out: MIC; for MIC-fold improvement vs. vancomycin: VRSA, ratio of MIC of vancomycin and MIC of analogue
Procedure: as §1

[1] = tested on: Murine leukemia (L1210) cells; test: Cytostatic activity, L1210 cell proliferation; format: cell-based; settings: mean ± SD of three experiments; highest concentration tested 250 µM; 2 days; read-out: Toxicity (IC50) L1210
Procedure: (§2) Murine leukemia (L1210), human T-lymphocyte (CEM) and the human cervix carcinoma (HeLa) cell line were suspended at 300,000–500,000 cells/mL of culture medium, and 100 μL of a cell suspension was added to 100 μL of an appropriate dilution of the test compounds in wells of 96-well microtiter plates. After incubation at 37°C for 2 (L1210), 3 (CEM), or 4 (HeLa) days, the cell number was determined using a Coulter counter. The IC50 was defined per cell type as the compound concentration required to inhibit cell proliferation by 50% compared to the negative control ([Glowacka et al., 2017]).

S. aureus VISA/HIP5827 = test: MIC, broth microdilution, vancomycin-intermediate S. aureus VISA HIP5827; format: cell-based, Staphylococcus aureus; settings: for MIC: Staphylococcus aureus VISA/HIP5827, read-out: MIC; for MIC-fold improvement vs. vancomycin: VISA/HIP5827, ratio of MIC of vancomycin and MIC of analogue
Procedure: as §1

MRSA KS6 = test: MIC, broth microdilution, MRSA KS6; format: cell-based, Staphylococcus aureus; settings: for MIC-fold improvement vs. vancomycin: MRSA KS6, ratio of MIC of vancomycin and MIC of analogue; for MIC: Staphylococcus aureus MRSA KS6, read-out: MIC
Procedure: as §1

[2] = tested on: human cervix carcinoma (HeLa) cells; test: Cytostatic activity, HeLa cell proliferation; format: cell-based; settings: mean ± SD of three experiments; highest concentration tested 250 µM; 4 days; read-out: Toxicity (IC50) HeLa
Procedure: as §2

E. faecalis VRE 6 = test: MIC, broth microdilution, vancomycin-resistant E. faecalis VRE 6 (VanA); format: cell-based, Enterococcus faecalis; settings: for MIC: Enterococcus faecalis VRE 6 (vancomycin-resistant), read-out: MIC; for MIC-fold improvement vs. vancomycin: VRE 6, ratio of MIC of vancomycin and MIC of analogue
Procedure: as §1

E. faecalis VRE 53 = test: MIC, broth microdilution, vancomycin-resistant E. faecalis VRE 53 (VanA); format: cell-based, Enterococcus faecalis; settings: for MIC: Enterococcus faecalis VRE 53 (vancomycin-resistant), read-out: MIC; for MIC-fold improvement vs. vancomycin: VRE 53, ratio of MIC of vancomycin and MIC of analogue
Procedure: as §1

MRSA KS2 = test: MIC, broth microdilution, MRSA KS2; format: cell-based, Staphylococcus aureus; settings: for MIC-fold improvement vs. vancomycin: MRSA KS2, ratio of MIC of vancomycin and MIC of analogue; for MIC: Staphylococcus aureus MRSA KS2, read-out: MIC
Procedure: as §1

E. faecalis VRE 29 = test: MIC, broth microdilution, vancomycin-resistant E. faecalis VRE 29 (VanA); format: cell-based, Enterococcus faecalis; settings: for MIC: Enterococcus faecalis VRE 29 (vancomycin-resistant), read-out: MIC
Procedure: as §1

E. faecalis VSE 1 = test: MIC, broth microdilution, vancomycin-sensitive E. faecalis (VSE 1); format: cell-based, Enterococcus faecalis; settings: for MIC: Enterococcus faecalis VSE 1 (vancomycin-sensitive), read-out: MIC; for MIC-fold improvement vs. vancomycin: VSE 1, ratio of MIC of vancomycin and MIC of analogue
Procedure: as §1

[3] = tested on: L1210, CEM and HeLa cell lines; test: Cytostatic activity, average or summary over L1210, CEM and HeLa; format: cell-based; settings: average of L1210, CEM and HeLa; read-out: Toxicity (IC50) Average
Procedure: as §2

[4] = tested on: human T-lymphocyte (CEM) cells; test: Cytostatic activity, CEM cell proliferation; format: cell-based; settings: mean ± SD of three experiments; highest concentration tested 250 µM; 3 days; read-out: Toxicity (IC50) CEM
Procedure: as §2

MRSA KS89 = test: MIC, broth microdilution, MRSA KS89; format: cell-based, Staphylococcus aureus; settings: for MIC-fold improvement vs. vancomycin: MRSA KS8, ratio of MIC of vancomycin and MIC of analogue; for MIC: Staphylococcus aureus MRSA KS8, read-out: MIC
Procedure: as §1

[5] = tested on: S. aureus VSSA (ATCC 6538); test: MIC, broth microdilution, vancomycin-sensitive S. aureus (VSSA/MSSA, ATCC 6538); format: cell-based, Staphylococcus aureus; settings: for MIC: Staphylococcus aureus VSSA, read-out: MIC; for MIC-fold improvement vs. vancomycin: VSSA, ratio of MIC of vancomycin and MIC of analogue
Procedure: as §1

E. faecalis VRE 37 = test: MIC, broth microdilution, vancomycin-resistant E. faecalis VRE 37 (VanA); format: cell-based, Enterococcus faecalis; settings: for MIC: Enterococcus faecalis VRE 37 (vancomycin-resistant), read-out: MIC
Procedure: as §1

SMILES: CNC(CC(C)C)C(=O)NC1C(=O)NC(CC(N)=O)C(=O)NC2C(=O)NC3C(=O)NC(C(=O)NC(C(=O)NCC(=O)Nc4cccc(OC)c4)c4cc(O)cc(O)c4-c4cc3ccc4O)C(O)c3ccc(c(Cl)c3)Oc3cc2cc(c3OC2OC(CO)C(O)C(O)C2OC2CC(C)(N)C(O)C(C)O2)Oc2ccc(cc2Cl)C1O (centres unmarked) [Vanc-12]
- MIC-fold improvement vs. vancomycin (MRSA KS1): 2
- MIC (MRSA KS1): 0.39 µM (≈ 0.628 µg/mL)
- MIC (S. aureus VRSA): 12.5 µM (≈ 20.1 µg/mL)
- MIC-fold improvement vs. vancomycin (S. aureus VRSA): 8
- IC50 [1]: > 250 µM
- MIC (S. aureus VISA/HIP5827): 0.39 µM (≈ 0.628 µg/mL)
- MIC-fold improvement vs. vancomycin (S. aureus VISA/HIP5827): 16
- MIC-fold improvement vs. vancomycin (MRSA KS6): 1
- MIC (MRSA KS6): 0.78 µM (≈ 1.26 µg/mL)
- IC50 [2]: 194 ± 78 µM
- MIC (E. faecalis VRE 6): 6.25 µM (≈ 10.1 µg/mL)
- MIC-fold improvement vs. vancomycin (E. faecalis VRE 6): 32
- MIC (E. faecalis VRE 53): 12.5 µM (≈ 20.1 µg/mL)
- MIC-fold improvement vs. vancomycin (E. faecalis VRE 53): 32
- MIC-fold improvement vs. vancomycin (MRSA KS2): 2
- MIC (MRSA KS2): 0.39 µM (≈ 0.628 µg/mL)
- MIC (E. faecalis VRE 29): 12.5 µM (≈ 20.1 µg/mL)
- MIC (E. faecalis VSE 1): 0.78 µM (≈ 1.26 µg/mL)
- MIC-fold improvement vs. vancomycin (E. faecalis VSE 1): 2
- IC50 [3]: 231 µM
- IC50 [4]: > 250 µM
- MIC-fold improvement vs. vancomycin (MRSA KS89): 2
- MIC (MRSA KS89): 0.39 µM (≈ 0.628 µg/mL)
- MIC [5]: 0.39 µM (≈ 0.628 µg/mL)
- MIC-fold improvement vs. vancomycin [5]: 2
- MIC (E. faecalis VRE 37): 25 µM (≈ 40.3 µg/mL)

SMILES: CNC(CC(C)C)C(=O)NC1C(=O)NC(CC(N)=O)C(=O)NC2C(=O)NC3C(=O)NC(C(=O)NC(C(=O)NCC(=O)Nc4ccc(-c5ccc(C(C)=O)cc5)cc4)c4cc(O)cc(O)c4-c4cc3ccc4O)C(O)c3ccc(c(Cl)c3)Oc3cc2cc(c3OC2OC(CO)C(O)C(O)C2OC2CC(C)(N)C(O)C(C)O2)Oc2ccc(cc2Cl)C1O (centres unmarked) [Vanc-85]
- MIC-fold improvement vs. vancomycin (MRSA KS1): 8
- MIC (MRSA KS1): 0.10 µM (≈ 0.17 µg/mL)
- MIC (S. aureus VRSA): 1.56 µM (≈ 2.65 µg/mL)
- MIC-fold improvement vs. vancomycin (S. aureus VRSA): 64
- IC50 [1]: 31 ± 9 µM
- MIC (S. aureus VISA/HIP5827): 0.78 µM (≈ 1.33 µg/mL)
- MIC-fold improvement vs. vancomycin (S. aureus VISA/HIP5827): 8
- MIC-fold improvement vs. vancomycin (MRSA KS6): 2
- MIC (MRSA KS6): 0.39 µM (≈ 0.663 µg/mL)
- IC50 [2]: 94 ± 12 µM
- MIC (E. faecalis VRE 6): 0.78 µM (≈ 1.33 µg/mL)
- MIC-fold improvement vs. vancomycin (E. faecalis VRE 6): 256
- MIC (E. faecalis VRE 53): 12.5 µM (≈ 21.2 µg/mL)
- MIC-fold improvement vs. vancomycin (E. faecalis VRE 53): 32
- MIC-fold improvement vs. vancomycin (MRSA KS2): 4
- MIC (MRSA KS2): 0.20 µM (≈ 0.34 µg/mL)
- MIC (E. faecalis VRE 29): 1.56 µM (≈ 2.65 µg/mL)
- MIC (E. faecalis VSE 1): ≤0.05 µM
- MIC-fold improvement vs. vancomycin (E. faecalis VSE 1): ≥32
- IC50 [3]: 44 µM
- IC50 [4]: 5.6 ± 0.6 µM
- MIC-fold improvement vs. vancomycin (MRSA KS89): 4
- MIC (MRSA KS89): 0.20 µM (≈ 0.34 µg/mL)
- MIC [5]: 0.20 µM (≈ 0.34 µg/mL)
- MIC-fold improvement vs. vancomycin [5]: 4
- MIC (E. faecalis VRE 37): 3.13 µM (≈ 5.32 µg/mL)
- MIC-fold improvement vs. vancomycin (E. faecalis VRE 37; VRE 37, ratio of MIC of vancomycin and MIC of analogue): 128

SMILES: CN[C@H](CC(C)C)C(=O)N[C@H]1C(=O)N[C@@H](CC(N)=O)C(=O)N[C@H]2C(=O)N[C@H]3C(=O)N[C@H](C(=O)N[C@H](C(=O)NCC(=O)Nc4ccc(C)cc4Cl)c4cc(O)cc(O)c4-c4cc3ccc4O)[C@H](O)c3ccc(c(Cl)c3)Oc3cc2cc(c3O[C@@H]2O[C@H](CO)[C@@H](O)[C@H](O)[C@H]2O[C@H]2C[C@](C)(N)[C@H](O)[C@H](C)O2)Oc2ccc(cc2Cl)[C@H]1O [Vanc-2]
- MIC-fold improvement vs. vancomycin (MRSA KS1): 2
- MIC (MRSA KS1): 0.39 µM (≈ 0.636 µg/mL)
- MIC (S. aureus VRSA): 12.5 µM (≈ 20.4 µg/mL)
- MIC-fold improvement vs. vancomycin (S. aureus VRSA): 8
- IC50 [1]: > 250 µM
- MIC (S. aureus VISA/HIP5827): 0.78 µM (≈ 1.27 µg/mL)
- MIC-fold improvement vs. vancomycin (S. aureus VISA/HIP5827): 8
- MIC-fold improvement vs. vancomycin (MRSA KS6): 2
- MIC (MRSA KS6): 0.39 µM (≈ 0.636 µg/mL)
- IC50 [2]: 158 ± 84 µM
- MIC (E. faecalis VRE 6): 12.5 µM (≈ 20.4 µg/mL)
- MIC-fold improvement vs. vancomycin (E. faecalis VRE 6): 16
- MIC (E. faecalis VRE 53): 25 µM (≈ 40.7 µg/mL)
- MIC-fold improvement vs. vancomycin (E. faecalis VRE 53): 16
- MIC-fold improvement vs. vancomycin (MRSA KS2): 2
- MIC (MRSA KS2): 0.39 µM (≈ 0.636 µg/mL)
- MIC (E. faecalis VRE 29): 12.5 µM (≈ 20.4 µg/mL)
- MIC-fold improvement vs. vancomycin (E. faecalis VRE 29; VRE 29, ratio of MIC of vancomycin and MIC of analogue): 32
- MIC (E. faecalis VSE 1): 0.39 µM (≈ 0.636 µg/mL)
- MIC-fold improvement vs. vancomycin (E. faecalis VSE 1): 4
- IC50 [3]: 219 µM
- IC50 [4]: > 250 µM
- MIC-fold improvement vs. vancomycin (MRSA KS89): 2
- MIC (MRSA KS89): 0.39 µM (≈ 0.636 µg/mL)
- MIC [5]: 0.78 µM (≈ 1.27 µg/mL)
- MIC-fold improvement vs. vancomycin [5]: 1
- MIC (E. faecalis VRE 37): 25 µM (≈ 40.7 µg/mL)
